# Source: patent US20180243421A1, “IMMUNOSTIMULATING AGENT” (AJINOMOTO CO., INC., priority 2015, published 2018)
# System: anti-OVA-specific IgE antibody
# Conditions: mouse, in vivo
# How it was run: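 Female BALB/c mice (8-week-old, N=6) were immunized dorsal-subcutaneously with OVA (5 or 10 μg) alone or with adjuvants (Alum, Addavax™, CpG 5 μg, MPL 5 μg, or test lipid 0.256 μmol in 5% αCD saline), boosted one week later. Serum anti-OVA IgE was measured by capture ELISA with HRP-labeled OVA, read at OD 450 nm against a standard curve.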
Compound,allergy inducing activity as compared to aluminum hydroxide gel adjuvant,allergy inducing activity as compared to aluminum hydroxide gel adjuvant and Addavax,allergy inducing activity as compared to Addavax,anti-OVA-specific IgE antibody production as compared to the OVA single administration group
"CCCCCCCCCCCCCCCC(=O)NC(=N)NCCCCN [SZ62, N-hexadecanoylagmatine]",lower allergy inducing activity,lower allergy inducing activity,–,–
"CCCCCCCCCCCCCCCCCCC(CCCCCCCCCCCCCCCCCC)C(=O)N[C@@H](CC(C)C)C(=O)OC [SZ86, N-(2-octadecyleicosanoyl)-L-leucine methyl ester]",–,–,low allergy inducing activity,a significant increase in the anti-OVA-specific IgE antibody production was not observed
"CCCCCCCCCCCCCCCC(=O)N[C@@H](CC(C)C)C(=O)N(CC)CC [SZ92, N^2-hexadecanoyl-N^1,N^1-diethyl-L-leucinamide]",–,–,low allergy inducing activity,a significant increase in the anti-OVA-specific IgE antibody production was not observed
"CCCCCCCCCCCCCCCC(=O)N[C@@H](CC(C)C)C(=O)OCCCCCC [SZ97, N-hexadecanoyl-L-leucine hexyl ester]",–,–,low allergy inducing activity,a significant increase in the anti-OVA-specific IgE antibody production was not observed
"CCCCCCCCCCCCCCCC(=O)N[C@@H](CCCNC(=N)N)C(=O)OCCCCCC.Cl [SZ99, N^2-hexadecanoyl-L-arginine hexyl ester hydrochloride salt]",–,–,low allergy inducing activity,a significant increase in the anti-OVA-specific IgE antibody production was not observed
"CCCCCCCCCCCCCCCCCCCCCC(=O)N[C@@H](CCC(=O)O)C(=O)N(CC)CC [SZ106, N^2-docosanoyl-N^1,N^1-diethyl-L-glutamic acid 1-amide]",–,–,low allergy inducing activity,a significant increase in the anti-OVA-specific IgE antibody production was not observed
"CCCCCCCCCCCCCCCCCCCCCC(=O)NC(=N)NCCCCN.Cl [SZ108, N-docosanoylagmatine hydrochloride salt]",–,–,low allergy inducing activity,a significant increase in the anti-OVA-specific IgE antibody production was not observed
